The target in this assay is cardiac troponin C (cNTnC) (Homo sapiens, UniProt P63316, C35S/C84S). The assay can be described thus: 2D 1H, […]-HSQC NMR titration, […] fit. Type of assay: binding.

The term Kd denotes a measure of binding affinity in units of concentration. A higher Kd goes with a looser complex.

In turn, `Cc1ccc(C)c(N2CCN(c3ccncc3N)CC2)c1` [compound 6, 4-(4-(2,5-dimethylphenyl)-1-piperazinyl)-3-pyridinamine] came in with a Kd of 721 ± 16 µM.

For the origin of these results see PMC4456024 (Chemical biology & drug design, 2014).
